How the values were obtained:
ECHCG [1] = assay: Post-emergence action against ECHCG; type: in vivo, Echinochloa crus-galli; settings: post-emergence, dosage 80 g/ha, visual assessment about 3 weeks after treatment vs untreated controls
Procedure, shortened: (§1)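 Post-emergence foliar spray on greenhouse plants at the one-leaf stage, using wettable-powder or emulsion-concentrate formulations in water (600 to […], plus 0.2% wetting agent). Damage scored by eye roughly 3 weeks later against untreated plants: 0% = like control, 100% = dead.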

POLCO = assay: Pre-emergence action against POLCO; type: in vivo, Polygonum convolvulus; settings: Dosage 320 g/ha, pre-emergence
Procedure, shortened: (§2)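 Seeds sown in sandy loam in wood-fiber pots and covered with soil. Greenhouse growth; visual damage scored after 3 weeks versus untreated controls (100% = dead, 0% = like control).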

ECHCG [2] = assay: Pre-emergence action against ECHCG; type: in vivo, Echinochloa crus-galli; settings: pre-emergence, dosage 320 g/ha, scored visually after 3 weeks vs untreated controls
Procedure, shortened: as §2

AVEFA [3] = assay: Pre-emergence action against AVEFA; type: in vivo, Avena fatua; settings: dosage 320 g/ha, scored visually after 3 weeks vs untreated controls
Procedure, shortened: as §2

VERPE [4] = assay: Pre-emergence action against VERPE; type: in vivo, Veronica persica; settings: Dosage 320 g/ha, pre-emergence
Procedure, shortened: as §2

ABUTH [5] = assay: Pre-emergence action against ABUTH; type: in vivo, Abutilon theophrasti; settings: pre-emergence, dosage 320 g/ha, scored visually after 3 weeks vs untreated controls
Procedure, shortened: as §2

ALOMY [6] = assay: Post-emergence action against ALOMY; type: in vivo, Alopecurus myosuroides; settings: Dosage 80 g/ha, post-emergence
Procedure, shortened: as §1

LOLRI [7] = assay: Post-emergence action against LOLRI; type: in vivo, Lolium rigidum; settings: dosage 80 g/ha, visual assessment about 3 weeks after treatment vs untreated controls
Protocol: Seeds of monocotyledonous and dicotyledonous weed and crop plants are laid out in sandy loam soil in wood-fiber pots, covered with soil and cultivated in a greenhouse under good growth conditions. 2 to 3 weeks after sowing, the test plants are treated at the one-leaf stage. The compounds of the invention, formulated in the form of wettable powders (WP) or as emulsion concentrates (EC), are then sprayed onto the green parts of the plants in the form of an aqueous suspension or emulsion at a water application rate equating to […], with addition of 0.2% wetting agent. After the test plants have been left to stand in the greenhouse under optimal growth conditions for about 3 weeks, the action of the preparations is assessed visually in comparison to untreated controls (herbicidal action in percent (%): 100% activity=the plants have died, 0% activity=like control plants). […] At the same time, inventive compounds leave Gramineae crops such as barley, wheat, rye, millet/Sorghum, corn or rice virtually undamaged when applied post-emergence, even at high active ingredient dosages. In addition, some substances are also harmless to dicotyledonous crops such as soya, cotton, oilseed rape, sugar beet or potatoes. Some of the compounds according to the invention have high selectivity and are therefore suitable for controlling unwanted vegetation in agricultural crops by the post-emergence method. The data of Tables B18 to B34 below illustrate, in an exemplary manner, the […] herbicidal action of the compounds according to the invention, the herbicidal activity being stated in percent.

SETVI [8] = assay: Pre-emergence action against SETVI; type: in vivo, Setaria viridis; settings: pre-emergence, dosage 320 g/ha, scored visually after 3 weeks vs untreated controls
Procedure, shortened: as §2

SETVI [9] = assay: Post-emergence action against SETVI; type: in vivo, Setaria viridis; settings: post-emergence, dosage 80 g/ha, visual assessment about 3 weeks after treatment vs untreated controls
Procedure, shortened: as §1

MATIN [10] = assay: Post-emergence action against MATIN; type: in vivo, Matricaria inodora; settings: post-emergence, dosage 80 g/ha, visual assessment about 3 weeks after treatment vs untreated controls
Procedure, shortened: as §1

CYPES = assay: Pre-emergence action against CYPES; type: in vivo, Cyperus esculentus; settings: pre-emergence, dosage 320 g/ha, scored visually after 3 weeks vs untreated controls
Procedure, shortened: as §2

LOLRI [11] = assay: Pre-emergence action against LOLRI; type: in vivo, Lolium rigidum; settings: dosage 320 g/ha, scored visually after 3 weeks vs untreated controls
Procedure, shortened: as §2

ABUTH [12] = assay: Post-emergence action against ABUTH; type: in vivo, Abutilon theophrasti; settings: post-emergence, dosage 80 g/ha, visual assessment about 3 weeks after treatment vs untreated controls
Procedure, shortened: as §1

VERPE [13] = assay: Post-emergence action against VERPE; type: in vivo, Veronica persica; settings: dosage 80 g/ha
Procedure, shortened: as §1

PHBPU [14] = assay: Pre-emergence action against PHBPU; type: in vivo, Pharbitis purpurea; settings: Dosage 320 g/ha, pre-emergence
Procedure, shortened: as §2

ALOMY [15] = assay: Pre-emergence action against ALOMY; type: in vivo, Alopecurus myosuroides; settings: dosage 320 g/ha; pre-emergence; scored visually after 3 weeks vs untreated controls; 100% = plants have died, 0% = like control plants
Procedure, shortened: as §2

VIOTR [16] = assay: Post-emergence action against VIOTR; type: in vivo, Viola tricolor; settings: post-emergence, dosage 80 g/ha
Procedure, shortened: as §1

AMARE [17] = assay: Post-emergence action against AMARE; type: in vivo, Amaranthus retroflexus; settings: post-emergence, dosage 80 g/ha, visual assessment about 3 weeks after treatment vs untreated controls
Procedure, shortened: as §1

AMARE [18] = assay: Pre-emergence action against AMARE; type: in vivo, Amaranthus retroflexus; settings: pre-emergence, dosage 320 g/ha, scored visually after 3 weeks vs untreated controls
Procedure, shortened: as §2

VIOTR [19] = assay: Pre-emergence action against VIOTR; type: in vivo, Viola tricolor; settings: Dosage 320 g/ha, pre-emergence
Procedure, shortened: as §2

PHBPU [20] = assay: Post-emergence action against PHBPU; type: in vivo, Pharbitis purpurea; settings: post-emergence, dosage 80 g/ha
Procedure, shortened: as §1

STEME [21] = assay: Pre-emergence action against STEME; type: in vivo, Stellaria media; settings: Dosage 320 g/ha, pre-emergence
Procedure, shortened: as §2

STEME [22] = assay: Post-emergence action against STEME; type: in vivo, Stellaria media; settings: post-emergence, dosage 80 g/ha
Procedure, shortened: as §1

MATIN [23] = assay: Pre-emergence action against MATIN; type: in vivo, Matricaria inodora; settings: Dosage 320 g/ha, pre-emergence
Procedure, shortened: as §2

AVEFA [24] = assay: Post-emergence action against AVEFA; type: in vivo, Avena fatua; settings: post-emergence, dosage 80 g/ha, visual assessment about 3 weeks after treatment vs untreated controls
Procedure, shortened: as §1

Structure (SMILES): COCC(=O)c1c(C(F)(F)F)ccc(C(=O)Nc2nnnn2C)c1Cl [1-144]
- Post-emergence action against ECHCG (herbicidal action in percent) (ECHCG [1]): 90%
- Pre-emergence action against POLCO (POLCO): 80%
- Pre-emergence action against ECHCG (herbicidal activity) (ECHCG [2]): 100%
- Pre-emergence action against AVEFA (herbicidal activity) (AVEFA [3]): 100%
- Pre-emergence action against VERPE (VERPE [4]): 100%
- Pre-emergence action against ABUTH (herbicidal activity) (ABUTH [5]): 100%
- Post-emergence action against ALOMY (ALOMY [6]): 90%
- Post-emergence action against LOLRI (herbicidal action in percent) (LOLRI [7]): 80%
- SETVI (Table B8, pre-emergence herbicidal activity) (SETVI [8]): 100%
- Post-emergence action against SETVI (herbicidal action in percent) (SETVI [9]): 100%
- Post-emergence action against MATIN (herbicidal action in percent) (MATIN [10]): 90%
- Pre-emergence action against CYPES (herbicidal activity) (CYPES): 100%
- Pre-emergence action against LOLRI (herbicidal activity) (LOLRI [11]): 100%
- Post-emergence action against ABUTH (herbicidal action in percent) (ABUTH [12]): 100%
- Post-emergence action against VERPE (VERPE [13]): 90
- Pre-emergence action against PHBPU (PHBPU [14]): 100%
- Pre-emergence action against ALOMY (herbicidal activity in percent) (ALOMY [15]): 100%
- Post-emergence action against VIOTR (VIOTR [16]): 100
- Post-emergence action against AMARE (herbicidal action in percent) (AMARE [17]): 100%
- Pre-emergence action against AMARE (herbicidal activity) (AMARE [18]): 100%
- Pre-emergence action against VIOTR (VIOTR [19]): 100%
- Post-emergence action against PHBPU (PHBPU [20]): 100
- Pre-emergence action against STEME (STEME [21]): 100%
- Post-emergence action against STEME (STEME [22]): 100
- Pre-emergence action against MATIN (MATIN [23]): 100%

Structure (SMILES): CCn1nnnc1NC(=O)c1ccc(C(F)(F)F)c(C(=O)C2(C)CC2)c1Cl [2-147]
- Post-emergence action against ECHCG (herbicidal action in percent) (ECHCG [1]): 80%
- Post-emergence action against AVEFA (herbicidal action in percent) (AVEFA [24]): 80%
- Pre-emergence action against ECHCG (herbicidal activity) (ECHCG [2]): 100%
- Pre-emergence action against AVEFA (herbicidal activity) (AVEFA [3]): 90%
- Pre-emergence action against VERPE (VERPE [4]): 80%
- Pre-emergence action against ABUTH (herbicidal activity) (ABUTH [5]): 100%
- Post-emergence action against LOLRI (herbicidal action in percent) (LOLRI [7]): 80%
- SETVI (Table B8, pre-emergence herbicidal activity) (SETVI [8]): 100%
- Post-emergence action against SETVI (herbicidal action in percent) (SETVI [9]): 80%
- Post-emergence action against MATIN (herbicidal action in percent) (MATIN [10]): 100%
- Pre-emergence action against CYPES (herbicidal activity) (CYPES): 80%
- Pre-emergence action against LOLRI (herbicidal activity) (LOLRI [11]): 90%
- Post-emergence action against ABUTH (herbicidal action in percent) (ABUTH [12]): 90%
- Pre-emergence action against ALOMY (herbicidal activity in percent) (ALOMY [15]): 90%
- Post-emergence action against AMARE (herbicidal action in percent) (AMARE [17]): 80%
- Pre-emergence action against AMARE (herbicidal activity) (AMARE [18]): 100%
- Pre-emergence action against VIOTR (VIOTR [19]): 100%
- Post-emergence action against PHBPU (PHBPU [20]): 90
- Pre-emergence action against STEME (STEME [21]): 100%
- Pre-emergence action against MATIN (MATIN [23]): 100%
